According to ChEMBL document CHEMBL5523667, “Blood-stage antimalarial activity, favourable metabolic stability and in vivo toxicity of novel piperazine linked 7-chloroquinoline-triazole conjugates” (Eur J Med Chem, 2024):
Activity calls are given as the source filed them. The calls are words filed in the database; no cut-off is given here.

Experiments:
Plasmodium falciparum [1] = assay: Antimalarial activity against chloroquine-sensitive Plasmodium falciparum NF54 assessed as inhibition of parasite growth by lactate dehydrogenase assay; format: functional, organism-based
[2] = Selectivity index, ratio of IC50 for cytotoxicity against CHO cells to IC50 for antimalarial activity against chloroquine-sensitive Plasmodium falciparum NF54; format: toxicity, cell-based; conditions: hamster, CHO cells versus Plasmodium falciparum NF54; read-out: Ratio IC50
Falcipain 2 [3] = molecular target: T1, Falcipain 2 (Plasmodium falciparum, UniProt Q9N6S8); assay: Binding affinity to N-terminal 6His-tagged recombinant Plasmodium falciparum FP2 expressed in Escherichia coli M15 assessed as dissociation constant incubated for 15 mins in presence of lysine reactive dye by microscale thermophoretic analysis
T1 sequence (Q9N6S8 whole entry): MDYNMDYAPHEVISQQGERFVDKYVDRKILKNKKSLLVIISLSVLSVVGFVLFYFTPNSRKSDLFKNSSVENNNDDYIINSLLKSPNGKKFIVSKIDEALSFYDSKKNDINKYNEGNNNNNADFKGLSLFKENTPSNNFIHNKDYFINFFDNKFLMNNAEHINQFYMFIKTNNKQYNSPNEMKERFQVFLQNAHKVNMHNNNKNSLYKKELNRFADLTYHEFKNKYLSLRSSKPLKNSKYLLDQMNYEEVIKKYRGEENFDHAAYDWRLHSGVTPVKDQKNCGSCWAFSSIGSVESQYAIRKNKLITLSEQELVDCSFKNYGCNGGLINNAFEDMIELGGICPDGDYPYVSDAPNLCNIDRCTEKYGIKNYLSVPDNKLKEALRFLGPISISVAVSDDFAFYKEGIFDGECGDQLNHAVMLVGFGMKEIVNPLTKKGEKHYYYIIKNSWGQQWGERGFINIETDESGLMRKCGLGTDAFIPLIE

Falcipain-3 [4] = molecular target: T2, Falcipain-3 (Plasmodium falciparum 3D7, UniProt Q8IIL0); assay: Binding affinity to N-terminal 6His-tagged recombinant Plasmodium falciparum FP3 expressed in Escherichia coli M15 assessed as dissociation constant incubated for 15 mins in presence of lysine reactive dye by microscale thermophoretic analysis
T2 sequence (Q8IIL0 whole entry): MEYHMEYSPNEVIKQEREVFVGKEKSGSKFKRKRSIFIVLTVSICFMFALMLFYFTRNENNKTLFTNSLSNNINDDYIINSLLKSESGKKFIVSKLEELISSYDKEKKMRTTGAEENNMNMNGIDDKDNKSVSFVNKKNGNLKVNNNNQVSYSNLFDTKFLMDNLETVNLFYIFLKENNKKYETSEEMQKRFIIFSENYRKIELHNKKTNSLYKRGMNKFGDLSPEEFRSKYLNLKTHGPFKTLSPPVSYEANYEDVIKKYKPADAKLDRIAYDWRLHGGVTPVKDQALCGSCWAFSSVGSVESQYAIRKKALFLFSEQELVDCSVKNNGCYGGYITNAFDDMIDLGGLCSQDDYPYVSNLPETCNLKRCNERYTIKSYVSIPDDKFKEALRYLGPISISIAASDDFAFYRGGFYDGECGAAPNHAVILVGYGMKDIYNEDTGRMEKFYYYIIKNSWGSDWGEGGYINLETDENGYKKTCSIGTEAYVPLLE

Falcipain 2 [5] = molecular target: T1, Falcipain 2; assay: Binding affinity to N-terminal 6His-tagged recombinant Plasmodium falciparum FP2 expressed in Escherichia coli M15 assessed as dissociation constant by surface plasmon resonance analysis
Falcipain-3 [6] = molecular target: T2, Falcipain-3; assay: Binding affinity to N-terminal 6His-tagged recombinant Plasmodium falciparum FP3 expressed in Escherichia coli M15 assessed as dissociation constant by surface plasmon resonance analysis
[7] = molecular target: T3, Falcipain 2 (Plasmodium falciparum) (UniProt Q9N6S8); assay: Binding affinity to N-terminal 6His-tagged recombinant Plasmodium falciparum FP2 expressed in Escherichia coli M15 assessed as association rate constant (Kon) by surface plasmon resonance analysis
T3 sequence (whole entry): T1 sequence (Q9N6S8 whole entry)

[8] = molecular target: T3, Falcipain 2 (Plasmodium falciparum); assay: Inhibition of N-terminal 6His-tagged recombinant Plasmodium falciparum FP2 expressed in Escherichia coli M15 using Z-Phe-Arg-AMC as substrate at 5 uM measured after 30 mins by microplate reader analysis relative to control
[9] = molecular target: T4, Falcipain-3 (Plasmodium falciparum 3D7) (UniProt Q8IIL0); assay: Inhibition of N-terminal 6His-tagged recombinant Plasmodium falciparum FP3 expressed in Escherichia coli M15 using Z-Phe-Arg-AMC as substrate at 5 uM measured after 30 mins by microplate reader analysis relative to control
T4 sequence (whole entry): T2 sequence (Q8IIL0 whole entry)

[10] = molecular target: T4, Falcipain-3 (Plasmodium falciparum 3D7); assay: Inhibition of N-terminal 6His-tagged recombinant Plasmodium falciparum FP3 expressed in Escherichia coli M15 using Z-Phe-Arg-AMC as substrate at 10 uM measured after 30 mins by microplate reader analysis relative to control
Plasmodium falciparum [11] = assay: Antimalarial activity against synchronized-ring stage chloroquine-sensitive Plasmodium falciparum 3D7 assessed as inhibition of parasite growth by measuring pyknotic appearance measured upto 60 hrs by Giemsa staining based light microscopic analysis; format: functional, organism-based
Plasmodium falciparum [12] = assay: Antimalarial activity against synchronized-trophozoite stage chloroquine-sensitive Plasmodium falciparum 3D7 assessed as inhibition of parasite growth by measuring pyknotic appearance measured upto 60 hrs by Giemsa staining based light microscopic analysis; format: functional, organism-based
Plasmodium falciparum [13] = assay: Antimalarial activity against schizont stage chloroquine-sensitive Plasmodium falciparum 3D7 assessed as growth inhibition incubated with compound for 6 hrs and measured 72 hrs post invasion by SYBR Green dye based analysis; format: functional, organism-based
Plasmodium falciparum [14] = assay: Synergistic antimalarial activity against chloroquine-sensitive Plasmodium falciparum 3D7 assessed as fractional inhibitory concentration incubated for 60 hrs in presence of chloroquine by SYBR Green staining based analysis; format: functional
Plasmodium berghei [15] = assay: Antimalarial activity against Plasmodium berghei ANKA infected in BALB/c mouse assessed as increase in survival at 50 to 100 mg/kg, ip p preadministered with phenylhydrazine for 3 days followed by compound administration and measured after 5 days; format: functional, organism-based; conditions: dose 50-100 mg/kg, time 5.0 day
[16] = Drug metabolism in mouse liver S9 fraction assessed as mono-hydroxylation mediated metabolite formation at 2 uM measured for 90 mins by LC-MS/MS analysis; format: ADME, subcellular; conditions: s9, 1.5 h
[17] = Toxicity in mouse assessed as total distance travelled at 200 mg/kg measured over 5 mins by open field arena test (reference value: 12.45 +/- 1.48 meter); format: organism-based; conditions: in vivo
[18] = Toxicity in mouse assessed as frequency of rearing activity at 100 mg/kg measured over 5 mins by open field arena test (reference value: 18.14 +/- 2.6 sec); format: organism-based; conditions: in vivo
[19] = Toxicity in mouse assessed as grooming time at 100 mg/kg by open field test (reference value: 10.91 +/- 2.01 sec); format: organism-based; conditions: in vivo, 2 s
[20] = Toxicity in mouse assessed as latency to fall off the rotating rod by measuring neuromuscular coordination index at 100 mg/kg by rotarod apparatus (reference value: 12.45 +/- 1.48 ); format: organism-based; conditions: in vivo
[21] = Toxicity in mouse assessed as effect on food intake at 100 to 200 mg/kg measured for 7 days; format: organism-based; conditions: in vivo, 168 h, dose 100-200 mg/kg, time 7 day
[22] = Toxicity in mouse assessed as cell death in liver at 100 to 200 mg/kg measured after 7 days by hematoxylin and eosin staining based analysis; format: organism-based; conditions: in vivo, 168 h, dose 100-200 mg/kg, time 7 day
Plasmodium berghei [23] = assay: Antimalarial activity against Plasmodium berghei ANKA infected in female BALB/c mouse assessed as reduction in parasitemia at 50 to 100 mg/kg, ip administered daily for 7 days by Giemsa staining based light microscopy; format: functional, organism-based; conditions: dose 50-100 mg/kg, time 7.0 day

Which IC50 (Plasmodium falciparum [1]) does the source give for `O=C(Cn1cc(CN2CCN(c3ccnc4cc(Cl)ccc34)CC2)nn1)Nc1cccc([N+](=O)[O-])c1` here?
Its IC50 is 0.92 µM.

And the selectivity ratio [2]?
The selectivity ratio was 160.

And the Kd (Falcipain 2 [3])?
The Kd was 2.99 µM.

And the Kd (Falcipain-3 [4])?
Its Kd is 54.4 µM.

And the Kd (Falcipain 2 [5])?
Its Kd is 14 µM.

What about the Kd (Falcipain-3 [6]) of the same compound?
Its Kd is 74 µM.

And the K [7]?
Its K is 680 M⁻¹ s⁻¹.

What about the inhibition [8] of the same compound?
Its inhibition is 27.3%.

And the inhibition [9]?
The inhibition was 27.3%.

And the inhibition [10]?
Its inhibition is 28.5%.

What about the Activity (Plasmodium falciparum [11]) of the same compound?
Its Activity is “Active”.

And the Activity (Plasmodium falciparum [12])?
The Activity was “Active”.

What about the IC50 (Plasmodium falciparum [13]) of the same compound?
The IC50 was 3.09 µM.

What about the “fractional inhibitory concentration index (FICI)” value (Plasmodium falciparum [14]) of the same compound?
The value was 0.5.

And the Activity (Plasmodium berghei [15])?
The Activity was “Active”.

What about the Drug metabolism [16] of the same compound?
Its Drug metabolism is “Metabolite_Detected”.

What about the Activity [17] of the same compound?
The Activity was 10.75 m.

And the Activity [18]?
The Activity was 14.17 s.

And the Time [19]?
The Time was 12.04 s.

And the Activity_index [20]?
Its Activity_index is 11.53.

And the Activity [21]?
The Activity was “Non-Toxic”.

And the Activity [22]?
Its Activity is “Non-Toxic”.

What about the Activity (Plasmodium berghei [23]) of the same compound?
The Activity was “Active”.
